Test results from patent US20070148660A1, “Treatment of maladaptive substance use with H-ras antagonists” (The Regents of the University of California, priority 2005, published 2007).
Marks after values point to notes of the source that are not given here.

Key:
[1] = test system: GluR1 subunit of the AMPAR; conditions: 100 mM ethanol, 15 min, hippocampal slices
Procedure: (§1) Transverse hippocampal slices ([…]) were prepared from 10- to 12-week-old C57BL/6J mice. Slices were allowed to recover for 90 min in artificial cerebrospinal fluid (aCSF) saturated with 95% O2/5% CO2 containing (in mM): 126 NaCl, 1.2 KCl, 1.2 NaH2PO4, 1.2 MgCl2, 2.4 CaCl2, 18 NaHCO3, and 11 glucose. Following recovery, slices were treated with aCSF (control) or ethanol at room temperature, after which the slices were rinsed in cold aCSF, and used either for cross-linking experiments, for Ras activity assay, or for immunoprecipitation. In experiments using Tat-H-Ras DN or the Tat-peptide, the slices were pretreated with either aCSF (control) or 2 μM Tat-H-Ras DN or Tat-peptide for 2 hrs at room temperature, followed by ethanol treatments.
(§2) Cross-linking was performed as described previously (22), with minor modifications. Following treatment, the slices were placed in cold aCSF in the presence or absence of 2 mg/ml of the cross-linking reagent BS^3 for 45 min at 4° C. while shaking. Slices were then rinsed three times with cold aCSF containing 20 mM Tris (pH 7.6), followed by sonication in cold homogenization buffer (10% SDS, 10 mM EDTA, 100 mM Tris (pH 8.0), and protease and phosphatase inhibitor cocktails). The protein concentration was determined using the BCA assay, followed by SDS-PAGE and Western blot analysis. Data are expressed as ratio of normalized surface expressed or internalized receptors to the total receptor levels.
(§3) Proteins were separated by SDS-PAGE and blotted onto a nitrocellulose membrane. After blocking, the membranes were incubated with the specific primary antibody, followed by horseradish peroxidase-conjugated secondary antibody. Detection was obtained followed by enhanced chemiluminescent reaction (Amersham Biosciences), and processed using the STORM PhosphoImager (Amersham Biosciences). Results were quantified by NIH Image 1.61.

[2] = test system: NR2B subunit; conditions: 100 mM ethanol, 15 min, hippocampal slices
Procedure: as §1, §2, §3

[3] = test system: NR1 subunit of the NMDAR; conditions: 100 mM ethanol, 15 min, hippocampal slices
Procedure: as §1, §2, §3

[4] = test system: NR2A-adaptin β2 association; assay: Co-immunoprecipitation of NR2A and adaptin β2, hippocampal slices; assay type: cell-based, mouse; conditions: 100 mM ethanol, 15 min
Procedure: as §1
The treated slices were homogenized in ice-cold buffer containing 1% deoxycholate, protease and phosphatase inhibitors and (in mM): 250 sucrose, 20 Tris-HCl (pH 7.5), 2 EDTA and 10 EGTA. 500 μg of the protein was diluted with 1× immunoprecipitation buffer (1% Triton X-100 and (in mM): 150 NaCl, 10 Tris HCl (pH 7.4), 1 EDTA, 1 EGTA and 0.2 sodium orthovanadate) and incubated with 5 μg of the appropriate antibody, followed by an overnight incubation at 4° C. with protein G agarose beads. […]
Proteins were separated by SDS-PAGE and blotted onto a nitrocellulose membrane. […] Results were quantified by NIH Image 1.61.

[5] = test system: NMDAR; assay: NMDAR-mediated EPSCs, whole-cell voltage clamp, hippocampal CA1; assay type: cell-based, mouse; conditions: for slowing of the weighted decay time compared to the control: 80 mM ethanol; for % Fast / τF / τS / τW: double exponential fit; for τW: 0 min 47.4 ms
Procedure: Electrophysiological recordings were performed in C57BL/6J mice ranging from P21 to P26. Briefly, mice were anesthetized with halothane and decapitated as per University of California, San Francisco animal care guidelines. Horizontal sections of the hippocampus ([…]) were prepared with a vibratome (Leica, Nussloch, Germany). Slices were placed in a holding chamber and allowed to recover for at least 1 hr before being placed in the recording chamber and superfused with aCSF saturated with 95% O2/5% CO2 and containing (in mM): 119 NaCl, 1.6 KCl, 1.0 NaH2PO4, 1.3 MgCl2 (for EPSCs) or 0.01 MgCl2 (for field excitatory postsynaptic potentials (fEPSPs)), 2.5 CaCl2, 26.2 NaHCO3 and 11 glucose. Picrotoxin (100 μM) was added to block gamma-aminobutyric acid-A (GABAA) receptor-mediated inhibitory synaptic transmission, and CNQX (for EPSCs) or NBQX (for fEPSPs) (10 μM) was added to block α-amino-3-hydroxy-5-methyl-4-isoxalepropionate (AMPA)/Kainate receptors. Cells were visualized using infrared differential interference contrast video microscopy.
Whole-cell voltage clamp-recordings were made using an Axopatch ID or a MultiClamp 700A amplifier (Axon Instruments, Union City, Calif.). Electrodes (3.5-5.0 MΩ) contained (in mM): 120 Cesium methansulfonate, 20 HEPES, 0.4 EGTA, 2.8 NaCl, 5 TEA-Cl, 2.5 MgATP, and 0.25 NaGTP (pH 7.2-7.3), buffer at 270-285 mOsm. Series resistance (10-30 MΩ) and input resistance were monitored on-line with a 4 mV depolarizing step (50 ms) given just after every afferent stimulus. Recordings from the CA1 region of the hippocampus were obtained with a bipolar stimulating electrode that was placed 100-300 μm rostral to the recording electrode and was used to stimulate excitatory afferents at 0.1 Hz. Neurons were voltage-clamped at +40 mV to evoke NMDAR-mediated EPSCs. At this potential, NMDARs have a maximal open probability and the Mg^2+ block is removed. EPSCs were filtered at 2 kHz, digitized at 5-10 kHz and collected on-line using Igor Pro software (Wavemetrics, Lake Oswego, Oreg.) or pClamp 9 (Axon Instruments, Union City, Calif.). NMDAR example traces were constructed by averaging 20 EPSCs (200 sec) elicited at +40 mV during baseline, ethanol application, drug application or drug application with ethanol. To calculate the decay time (τ), Igor Pro software was used to fit exponential decay curves to averaged NMDAR-mediated EPSCs using the formula: y=A1exp(−invTau1*x)+A2exp(−invTau2X).

[6] = test system: NR2A subunit of the NMDAR; assay: BS3 cross-linking, surface vs internalized NR2A in hippocampal slices; assay type: cell-based, mouse
Procedure: as §1, §2, §3

[7] = 15 min exposure to ethanol (80 mM), n=6
[8] = 30 min exposure to ethanol (80 mM), n=6

SMILES: CCO [ethanol]
- surface expression of the GluR1 subunit [1]: no change
- membranal localization of the NR2B subunit [2]: did not alter
- surface expression of the NR1 subunit [3]: no change
- association of adaptin β2 with NR2A and vice-versa [4]: significantly increased
- inhibition of EPSCs at low ethanol concentration ([5]; 25 mM ethanol, n=18, data not shown): 24±6%
- effect of ethanol on the remaining portion of the NMDAR EPSCs ([5]; 80 mM ethanol bath applied after NVP-AAM077 0.4 μM): did not alter
- slowing of the weighted decay time compared to the control ([5]; after 15 min, n=6): 33±14%
- slowing of the weighted decay time compared to the control ([5]; after 30 min, n=6): 70±29%
- % Fast [5, 7]: 12.5 ± 3.1%
- τF [5, 7]: 34.5 ± 2.1 ms
- τS [5, 7]: 256.3 ± 51.8* ms
- τW [5, 7]: 62.2 ± 10* ms
- τW ([5]; 15 min exposure to ethanol (80 mM), n=6, listed as Ethanol): 62 ± 10 ms
- % Fast [5, 8]: 112.6 ± 2.0%
- τF [5, 8]: 42.4 ± 4.4* ms
- τS [5, 8]: 354.0 ± 91.1 ms
- τW [5, 8]: 77.8 ± 14.1* ms
- τW ([5]; 30 min exposure to ethanol (80 mM), n=6, listed as Ethanol): 78 ± 14 ms
- inhibition of NMDAR-mediated EPSCs ([5]; bath application of 80 mM ethanol, n=9, data not shown): 37±7%
- further decrease in remaining current ([5]; bath application of ethanol in the presence of ifenprodil (3 μM)): 36%
- total reduction of NMDAR EPSCs ([5]; ifenprodil (3 μM) plus ethanol, n=6): 73±7%
- change in subcellular localization of NR2A after ethanol washout ([6]; 100 mM ethanol 15 min, washed out, 15 min recovery): not observed
- intracellular level of NR2A ([6]; 100 mM ethanol, 15 min, hippocampal slices): significant increase
- NR2A internalization in Fyn+/+ and Fyn-/- mice ([6]; 100 mM ethanol, 15 min, slices from Fyn+/+ and Fyn-/- mice): significantly enhanced
- internalization of the NR2A subunits in Src+/+ mice ([6]; 100 mM ethanol, 15 min, slices from Src+/+ mice): significantly increased
- NR2A internalization in Src+/- mice upon ethanol ([6]; 100 mM ethanol, 15 min, slices from Src+/- mice, NR2A internalized under basal conditions): no additional changes
- surface expression of the NR2A subunit at lower ethanol concentrations ([6]; ethanol as low as 25 mM, 15 min, hippocampal slices): reduction
